Assay results as given in publication PMC4512978, “Synthesis and evaluation in rats of homologous series of [^18F]-labeled dopamine D2/3 receptor agonists based on the 2-aminomethylchroman scaffold as potential PET tracers” (EJNMMI Research, 2015).

Key:
[1] = LogD measurement (n-octanol/phosphate buffer); type: physicochemical; settings: n-octanol / 1 M phosphate buffer pH 7.4
Experimental: LogD of the tracers was measured using the radioactivity remaining on the HLB SPE cartridges after their elution with ethanol during the tracer formulation procedure (see above). The cartridge was dried with nitrogen for 5 min and eluted with at least 1.5 mL n-octanol. A 500 μL portion of octanol eluate was mixed with 500 μL of 1 M phosphate buffer (pH 7.4) and vigorously vortexed for 5 min. The mixture was then centrifuged at 17,000g for 10 min and 3 × 100 μL aliquots of organic and aqueous phase were loaded into a gamma-counter for radioactivity measurement. To correct for possible presence of radioactive impurities in the tracer, aliquots of organic and aqueous phases were later analyzed by radio-TLC, and the counts obtained from the gamma-counter were corrected according to the percentage of impurities found in aqueous and organic phases. LogD was calculated with the following formula: LogD=lgCPMorg×Xorgtracer/CPMaq×Xaqtracer,
where CPMorg is the mean radioactivity of the organic aliquots, Xorgtracer is the mean percentage of radioactivity accounting for intact tracer in organic aliquots (as determined from radio-TLC), and CPMaq and Xaqtracer are the corresponding values for the aqueous phase.
For each tracer batch used for logD determination, the experiment was performed in duplicate. LogD values are means calculated from at least two independent experiments.

[2] = Ex vivo tissue uptake after the PET scan (gamma-counter); type: in vivo, Sprague-Dawley rats
Experimental: After the end of the PET scans (i.e., 98 ± 8 min after tracer injection), anesthetized animals were sacrificed by heart extirpation and dissected. Samples of brain and peripheral tissues were taken. All samples were weighed, and their radioactivity was measured in a gamma-counter.

[3] = Tracer metabolism in plasma and brain extract (radio-TLC); type: in vivo, rats
Experimental: Throughout the scan, arterial blood samples (15–19 samples; 0.10–0.15 mL each) were withdrawn from each rat through the arterial cannula. […] From each sample, 25 μL aliquots of whole blood were withdrawn. The rest was centrifuged at 3500 g for 5 min; 25 μL supernatant (plasma) aliquots were withdrawn and deproteinated with 75 μL of ice-cold acetonitrile. From the resulting 100 μL, 2–8 μL portions (i.e., 2–8 % of volume) were taken for thin layer chromatography analysis (radio-TLC) to assess radiometabolite content.
The radioactivity of the plasma and whole blood samples was measured using a well-type gamma-counter (LKB-1282-Compugamma, LKB Wallac).
Radio-TLC was performed on silica plates. Samples of the formulated tracers (diluted) were run along with deproteinated plasma samples to confirm the identity of the parent compound in plasma. Eluent systems used and TLC Rf values recorded are presented in Additional file 1: Table S1.
Another half of the brain was homogenized in 3 mL of ice-cold acetonitrile using Heidolph IDAX600 homogenizer at maximum speed. Homogenate was centrifuged at 3500g for 5 min, and the supernatant (containing >95 % total radioactivity) was analyzed by radio-TLC in the same way as described above for the plasma.

[4] = raclopride 1 mg/kg, after PET scan

logD [1]: 1.67 ± 0.07
Ex vivo uptake, Adipose tissue ([2]; RAC): 0.09±0.02 SUV
Ex vivo uptake, Adrenal glands ([2]; RAC): 0.59±0.20 SUV
Ex vivo uptake, Bladder ([2]; RAC): 0.83±0.64 SUV
Ex vivo uptake, Blood cells ([2]; RAC): 0.06±0.01 SUV
Ex vivo uptake, Bone ([2]; RAC): 0.17±0.05 SUV
Ex vivo uptake, Bone marrow ([2]; RAC): 2.00±3.17 SUV
Ex vivo uptake, Caecum ([2]; RAC): 0.63±0.84 SUV
Ex vivo uptake, Duodenum ([2]; RAC): 4.01±4.63 SUV
Ex vivo uptake, Heart ([2]; RAC): 0.16±0.02 SUV
Ex vivo uptake, Kidney ([2]; RAC): 0.48±0.07 SUV
Ex vivo uptake, Large intestine ([2]; RAC): 0.41±0.33 SUV
Ex vivo uptake, Large intestine content ([2]; RAC): 0.09±0.12 SUV
Ex vivo uptake, Liver ([2]; RAC): 1.43±0.30 SUV
Ex vivo uptake, Lung ([2]; RAC): 1.38±0.20 SUV
Ex vivo uptake, Muscle ([2]; RAC): 0.19±0.05 SUV
Ex vivo uptake, Pancreas ([2]; RAC): 1.47±0.32 SUV
Ex vivo uptake, Plasma ([2]; RAC): 0.23±0.01 SUV
Ex vivo uptake, Prostate ([2]; RAC): 0.40±0.26 SUV
Ex vivo uptake, Small intestine ([2]; RAC): 2.39±1.94 SUV
Ex vivo uptake, Small intestine content ([2]; RAC): 24.6±32.8 SUV
Ex vivo uptake, Spleen ([2]; RAC): 0.52±0.10 SUV
Ex vivo uptake, Stomach ([2]; RAC): 2.09±1.19 SUV
Ex vivo uptake, Submandibular gland ([2]; RAC): 0.28±0.06 SUV
Ex vivo uptake, Testes ([2]; RAC): 0.42±0.10 SUV
Ex vivo uptake, Thymus ([2]; RAC): 0.30±0.06 SUV
Ex vivo uptake, Urine ([2]; RAC): 4.40±3.88 SUV
Ex vivo uptake, Whole blood ([2]; RAC): 0.17±0.01 SUV
Ex vivo uptake, Adipose tissue ([2]; SAL): 0.30±0.42 SUV
Ex vivo uptake, Adrenal glands ([2]; SAL): 0.84±0.29 SUV
Ex vivo uptake, Bladder ([2]; SAL): 1.00±0.52 SUV
Ex vivo uptake, Blood cells ([2]; SAL): 0.07±0.01 SUV
Ex vivo uptake, Bone ([2]; SAL): 0.24±0.21 SUV
Ex vivo uptake, Bone marrow ([2]; SAL): 0.68±0.38 SUV
Ex vivo uptake, Caecum ([2]; SAL): 0.46±0.29 SUV
Ex vivo uptake, Duodenum ([2]; SAL): 1.15±0.25 SUV
Ex vivo uptake, Heart ([2]; SAL): 0.15±0.04 SUV
Ex vivo uptake, Kidney ([2]; SAL): 0.64±0.20 SUV
Ex vivo uptake, Large intestine ([2]; SAL): 0.57±0.36 SUV
Ex vivo uptake, Large intestine content ([2]; SAL): 0.06±0.03 SUV
Ex vivo uptake, Liver ([2]; SAL): 1.51±0.14 SUV
Ex vivo uptake, Lung ([2]; SAL): 1.67±0.41 SUV
Ex vivo uptake, Muscle ([2]; SAL): 0.17±0.04 SUV
Ex vivo uptake, Pancreas ([2]; SAL): 1.31±0.31 SUV
Ex vivo uptake, Plasma ([2]; SAL): 0.22±0.04 SUV
Ex vivo uptake, Prostate ([2]; SAL): 0.62±0.18 SUV
Ex vivo uptake, Small intestine ([2]; SAL): 3.15±2.00 SUV
Ex vivo uptake, Small intestine content ([2]; SAL): 54.2±57.7 SUV
Ex vivo uptake, Spleen ([2]; SAL): 0.46±0.05 SUV
Ex vivo uptake, Stomach ([2]; SAL): 1.36±0.35 SUV
Ex vivo uptake, Submandibular gland ([2]; SAL): 0.36±0.12 SUV
Ex vivo uptake, Testes ([2]; SAL): 0.40±0.06 SUV
Ex vivo uptake, Thymus ([2]; SAL): 0.32±0.06 SUV
Ex vivo uptake, Urine ([2]; SAL): 11.0±9.5 SUV
Ex vivo uptake, Whole blood ([2]; SAL): 0.16±0.03 SUV
Ex vivo uptake, Brainstem [2, 4]: 0.16 ± 0.04 SUV
Ex vivo uptake, Cerebellum [2, 4]: 0.13 ± 0.02 SUV
Ex vivo uptake, Cortex [2, 4]: 0.16 ± 0.04 SUV
Ex vivo uptake, Hippocampus [2, 4]: 0.23 ± 0.08 SUV
Ex vivo uptake, Mean brain uptake [2, 4]: 0.16 ± 0.04 SUV
Ex vivo uptake, Olfactory bulbs [2, 4]: 0.15 ± 0.04 SUV
Ex vivo uptake, Parietal bone [2, 4]: 0.10 ± 0.01 SUV
Ex vivo uptake, Pituitary [2, 4]: 0.59 ± 0.20 SUV
Ex vivo uptake, Rest of brain [2, 4]: 0.18 ± 0.03 SUV
Ex vivo uptake, Striatum [2, 4]: 0.23 ± 0.08 SUV
Ex vivo uptake, Thalamus + hypothalamus [2, 4]: 0.19 ± 0.05 SUV
Ex vivo uptake, Brainstem ([2]; saline, after PET scan): 0.18 ± 0.02 (6) SUV
Ex vivo uptake, Cerebellum ([2]; saline, after PET scan): 0.13 ± 0.01 (8) SUV
Ex vivo uptake, Cortex ([2]; saline, after PET scan): 0.18 ± 0.01 (5) SUV
Ex vivo uptake, Hippocampus ([2]; saline, after PET scan): 0.22 ± 0.02 (2) SUV
Ex vivo uptake, Mean brain uptake ([2]; saline, after PET scan): 0.18 ± 0.01 SUV
Ex vivo uptake, Olfactory bulbs ([2]; saline, after PET scan): 0.17 ± 0.01 (7) SUV
Ex vivo uptake, Parietal bone ([2]; saline, after PET scan): 0.10 ± 0.01 SUV
Ex vivo uptake, Pituitary ([2]; saline, after PET scan): 0.76 ± 0.08 SUV
Ex vivo uptake, Rest of brain ([2]; saline, after PET scan): 0.20 ± 0.02 (3) SUV
Ex vivo uptake, Thalamus + hypothalamus ([2]; saline, after PET scan): 0.19 ± 0.003 (4) SUV
Ex vivo uptake, Striatum ([2]; saline, after PET scan (98 ± 8 min p.i.)): 0.28 ± 0.03 (1) SUV
intact tracer in radioactivity of brain tissue extract ([3]; 35 min post-injection): 92%
metabolism in plasma ([3]; living rats): quickly metabolized in the plasma
entry of radiometabolites into the brain ([3]; rat, in vivo): did not enter the brain
Structure (SMILES): Oc1ccc2c(c1)O[C@@H](CNCc1ccc(OCC[18F])cc1)CC2 [[^18F]FEt-AMC13]
Striatal SBR based on after-scan biodistribution measurements ([2]; 1 mg/kg raclopride): 0.74 ± 0.27
decrease of biodistribution-based striatal SBR ([2]; 1 mg/kg raclopride, p = 0.17): 31%
Striatal SBR based on after-scan biodistribution measurements ([2]; saline pre-treated): 1.07 ± 0.10
